Here are results for seven molecules from patent publication US8440837B2, “2-substituted-ethynylthiazole derivatives and uses of same” (H. Lundbeck A/S, priority 2009, dated 2013).

As usually defined, the Ki is a dissociation constant, usually derived from enzyme kinetics or from competition with a known ligand. The EC50 is the concentration giving half of the maximal effect.

For test [1], the target named is mGluR5 (Homo sapiens, UniProt P41594). The test is described as follows: [3H] MPEP radioligand filtration binding assay on membrane homogenates. The note with it: 5 nM [3H] MPEP, Cheng-Prusoff from IC50. The method, then:
Binding assays were performed as described in [J. A. O'Brien et al. Mol. Pharmacol., 2003, 64, 731-740] with slight modifications. Briefly, after thawing, the membrane homogenates were resuspended in 50 mM Tris-HCl, 0.9% NaCl binding buffer at pH 7.4 to a final assay concentration of 20 μg protein/well for [^3H] […] ([^3H] MPEP) (American Radiolabeled Chemicals, Inc., St. Louis, Mo.) filtration binding. Incubations included 5 nM [^3H] MPEP, membranes and either buffer or varying concentrations of compound. Samples were incubated for 60 min at room temperature with shaking. Non-specific binding was defined with 10 μM MPEP. After incubation, samples were filtered over a GF/C filter (presoaked in 0.25% polyethyleneimine (PEI)) and then washed 4 times using a Tomtec® Harvester 96® Mach III cell harvester (Tomtec, Hamden, Conn.) with 0.5 mL ice-cold 50 mM Tris-HCl (pH 7.4).
IC50 values were derived from the inhibition curve and Ki values were calculated according to the Cheng and Prusoff equation of Ki=IC50/(1+[L]/Kd) described in [Y. Cheng and W. H. Prusoff Biochem. Pharmacol. 1973, 22, 3099-3108] where [L] is the concentration of radioligand and Kd is its dissociation constant at the receptor, derived from the saturation isotherm.

For test [2], the target named is human metabotropic glutamate receptor 5 (hmGluR5) (UniProt P31424). The test is described as follows: Calcium mobilization (FLIPR) assay, positive allosteric modulation of the EC20 glutamate response. The format is cell-based. The note with it: HEK 293 cells; for maximum modulation (Emax): EC20 glutamate response; for EC50: increase in EC20 glutamate response. The method, then: The cDNA for human metabotropic glutamate receptor 5 (hmGluR5) was a generous gift from S. Nakanishi (Kyoto University, Kyoto, Japan). The […] was stably expressed in a HEK 293 cell line and grown in Dulbecco's Modified Eagle Medium (DMEM) (Invitrogen, Carlsbad, Calif.) with supplements (10% bovine calf serum, 4 mM glutamine, 100 units/mL penicillin, 100 μg/mL streptomycin and […]) at 37° C., 5% CO2. Twenty-four hours prior to assay, cells were seeded into 384-well black wall microtiter plates coated with poly-D-lysine. Just prior to assay, media was aspirated and cells dye-loaded (25 μL/well) with 3 μM Fluo-4/0.01% pluronic acid in assay buffer (Hank's Balanced Saline Solution (HBSS)): 150 mM NaCl, 5 mM KCl, 1 mM CaCl2, 1 mM MgCl2, plus 20 mM N-2-Hydroxyethylpiperazine-N′-2-ethanesulfonic acid (HEPES), pH 7.4, 0.1% bovine serum albumin (BSA) and 2.5 mM probenicid) for 1 hour in 5% CO2 at 37° C. After excess dye was discarded, cells were washed in assay buffer and layered with a final volume equal to 30 μL/well. Basal fluorescence is monitored in a fluorometric imaging plate reader (FLIPR) (Molecular Devices, Sunnyvale, Calif.) with an excitation wavelength of 488 nm and an emission range of 500 to 560 nm. Laser excitation energy was adjusted so that basal fluorescence readings were approximately 10,000 relative fluorescent units. Cells were stimulated with an EC20 or an EC80 concentration of glutamate in the presence of a compound to be tested, both diluted in assay buffer, and relative fluorescent units were measured at defined intervals (exposure=0.6 sec) over a 3 min period at room temperature. Basal readings derived from negative controls were subtracted from all samples. Maximum change in fluorescence was calculated for each well. Concentration-response curves derived from the maximum change in fluorescence were analyzed by nonlinear regression (Hill equation).
A silent allosteric modulator (SAM) can be identified by using a combination of both the calcium mobilization assay data and the radioligand binding data. As used herein, the term “silent allosteric modulator” refers to a ligand that binds to an allosteric site of the receptor but has no measurable intrinsic efficacy.
For orientation: Calcium flux is commonly read through the fluorescence of an indicator in the cells.

Test [3] relates to working memory processes (cognition). The test is described as follows: Novel object recognition (NOR) test. In kind it is in vivo, rats. The method, then: Cognition can be assessed by the novel object recognition (NOR). NOR can be used to access cognitive performance with respect to processes of working memory, such as recognition, interpretation and appropriate response. The NOR test was performed using the compound of Example 1 and reference compound in vehicle of 20% β-cyclodextrin (βCD) in dH2O. Example 1 (at 3.0 mg/kg, ip in rats) has activity as measured in the NOR test. Along with Example 1, Examples 2, 12 and 35 (at 1.0 mg/kg, po in rats) have activity as measured in the NOR test.

mGluR5, sequence (P41594 21-1212): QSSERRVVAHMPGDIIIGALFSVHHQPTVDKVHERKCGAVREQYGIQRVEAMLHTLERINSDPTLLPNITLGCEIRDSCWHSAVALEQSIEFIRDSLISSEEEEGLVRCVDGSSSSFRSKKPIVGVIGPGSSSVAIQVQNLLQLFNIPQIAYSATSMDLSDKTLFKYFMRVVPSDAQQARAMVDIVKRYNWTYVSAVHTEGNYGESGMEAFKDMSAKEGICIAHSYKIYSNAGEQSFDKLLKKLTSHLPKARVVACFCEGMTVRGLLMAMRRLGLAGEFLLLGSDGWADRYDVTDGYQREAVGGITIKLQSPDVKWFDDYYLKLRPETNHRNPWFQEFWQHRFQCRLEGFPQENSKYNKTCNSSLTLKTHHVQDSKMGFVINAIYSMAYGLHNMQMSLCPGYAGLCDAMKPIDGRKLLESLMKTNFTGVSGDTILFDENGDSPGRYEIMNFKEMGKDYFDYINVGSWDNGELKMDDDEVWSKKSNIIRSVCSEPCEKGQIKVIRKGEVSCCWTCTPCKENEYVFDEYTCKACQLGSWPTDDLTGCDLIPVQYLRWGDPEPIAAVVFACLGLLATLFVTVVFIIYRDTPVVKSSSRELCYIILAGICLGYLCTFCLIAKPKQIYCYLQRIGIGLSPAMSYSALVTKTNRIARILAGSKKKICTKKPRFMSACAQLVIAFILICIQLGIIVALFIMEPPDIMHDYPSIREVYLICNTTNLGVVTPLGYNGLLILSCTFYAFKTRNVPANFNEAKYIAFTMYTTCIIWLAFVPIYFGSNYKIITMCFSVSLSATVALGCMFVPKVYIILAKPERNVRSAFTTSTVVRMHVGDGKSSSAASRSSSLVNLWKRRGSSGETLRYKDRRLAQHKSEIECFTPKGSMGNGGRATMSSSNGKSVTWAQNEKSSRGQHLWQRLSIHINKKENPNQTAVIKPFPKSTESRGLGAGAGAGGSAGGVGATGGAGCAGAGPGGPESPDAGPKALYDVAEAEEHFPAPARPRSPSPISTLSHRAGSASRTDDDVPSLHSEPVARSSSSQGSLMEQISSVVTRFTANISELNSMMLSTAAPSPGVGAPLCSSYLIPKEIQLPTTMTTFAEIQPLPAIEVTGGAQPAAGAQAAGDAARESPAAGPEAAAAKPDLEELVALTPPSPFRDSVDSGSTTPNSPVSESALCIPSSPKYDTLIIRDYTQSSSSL

Turning to `O=C(c1cnc(C#Cc2ccccc2)s1)N1CCCCC1` [Example 1, (2-Phenylethynyl-thiazol-5-yl)-piperidin-1-yl-methanone], the inhibition constant (Ki) in test [1] worked out at 139 nM. Besides, in test [2], the “maximum modulation (Emax)” value is recorded as 210% and the EC50 stood at 3.6 nM. In addition, the “activity in the NOR test” value in test [3] (1.0 mg/kg, po in rats, FIG. 2) is “have activity”. In addition, the “activity in the NOR test” value in test [3] (3.0 mg/kg, ip in rats, FIG. 1) was “has activity”.

`O=C(c1cnc(C#Cc2ccccc2)s1)N1CCC(F)CC1` [Example 2, (4-Fluoro-piperidin-1-yl)-(2-phenylethynyl-thiazol-5-yl)-methanone]: the affinity in test [1], expressed as Ki, was 192 nM. In test [2], the “maximum modulation (Emax)” value was found to be 130% and the concentration giving a half-maximal response (EC50) was found to be 7.9 nM. For the same molecule, the “activity in the NOR test” value in test [3] (1.0 mg/kg, po in rats, FIG. 2) is given as “have activity”.

With `O=C(c1cnc(C#Cc2ccccc2)s1)N1CCOCC1` [Example 7, Morpholin-4-yl-(2-phenylethynyl-thiazol-5-yl)-methanone], the affinity in test [1], expressed as Ki, was 860 nM.

The molecule `CC1CCN(C(=O)c2cnc(C#Cc3ccccc3)s2)CC1` [Example 11, (4-Methyl-piperidin-1-yl)-(2-phenylethynyl-thiazol-5-yl)-methanone] returned an inhibition constant Ki in test [1] of 135 nM. For the same molecule, in test [2], the “maximum modulation (Emax)” value worked out at 150% and the concentration for a half-maximal effect (EC50) worked out at 3.5 nM.

`O=C(c1cnc(C#Cc2ccccc2)s1)N1CCC(O)CC1` [Example 12, (4-Hydroxy-piperidin-1-yl)-(2-phenylethynyl-thiazol-5-yl)-methanone]: the Ki in test [1] is 7170 nM. Also, in test [2], the “maximum modulation (Emax)” value is 170% and the EC50 amounted to 280 nM. Besides, the “activity in the NOR test” value in test [3] (1.0 mg/kg, po in rats, FIG. 2) is “have activity”.

For `O=C(c1cnc(C#Cc2cccc(F)c2)s1)N1CCOCC1` [Example 22, [2-(3-Fluoro-phenylethynyl)-thiazol-5-yl]-morpholin-4-yl-methanone], affinity in test [1] was put at a Ki of 300 nM.

Regarding `O=C(c1cnc(C#Cc2cccc(Cl)c2)s1)N1CCCCC1` [Example 35, [2-(3-Chloro-phenylethynyl)-thiazol-5-yl]-piperidin-1-yl-methanone], the “activity in the NOR test” value in test [3] (1.0 mg/kg, po in rats, FIG. 2) is “have activity”.
